Laboratory results as given in PubChem BioAssay AID1259407 (Chemical Carcinogenesis Research Information System (CCRIS), 2018).
Calls of active or inactive are those of the source. How the calls were made is not given here.

Tested on: CCRIS mutagenicity, Ames/micronucleus/aberration tests
Assay: CCRIS mutagenicity studies
[1] = Test System: AMES SALMONELLA TYPHIMURIUM, Strain/Indicator: TA98, Metabolic Activation: RAT, LIVER, S-9, AROCLOR 1254, Method: STANDARD PLATE
[2] = Test System: AMES SALMONELLA TYPHIMURIUM, Strain/Indicator: TA100, Metabolic Activation: RAT, LIVER, S-9, AROCLOR 1254, Method: STANDARD PLATE
[3] = Test System: AMES SALMONELLA TYPHIMURIUM, Strain/Indicator: TA98, Metabolic Activation: NONE, Method: STANDARD PLATE
[4] = Test System: AMES SALMONELLA TYPHIMURIUM, Strain/Indicator: TA100, Metabolic Activation: NONE, Method: STANDARD PLATE
[5] = Test System: AMES SALMONELLA TYPHIMURIUM, Strain/Indicator: TA98, Metabolic Activation: NONE, Method: PREINCUBATION
[6] = Test System: AMES SALMONELLA TYPHIMURIUM, Strain/Indicator: TA100, Metabolic Activation: NONE, Method: PREINCUBATION

Measured: mutagenic call

FC(F)(Cl)Cl
inactive: Test System: AMES SALMONELLA TYPHIMURIUM, Strain/Indicator: TA98, Metabolic Activation: NONE, Method: GAS EXPOSURE inactive; negative | Test System: AMES SALMONELLA TYPHIMURIUM, Strain/Indicator: TA98, Metabolic Activation: RAT LIVER S-9, PHENOBARBITAL AND BETA-NAPHTHOFLAVONE (40%), Method: GAS EXPOSURE inactive; negative | Test System: AMES SALMONELLA TYPHIMURIUM, Strain/Indicator: TA100, Metabolic Activation: NONE, Method: GAS EXPOSURE inactive; negative | Test System: AMES SALMONELLA TYPHIMURIUM, Strain/Indicator: TA100, Metabolic Activation: RAT LIVER S-9, PHENOBARBITAL AND BETA-NAPHTHOFLAVONE (40%), Method: GAS EXPOSURE inactive; negative | Test System: AMES SALMONELLA TYPHIMURIUM, Strain/Indicator: TA1535, Metabolic Activation: NONE, Method: GAS EXPOSURE inactive; negative | Test System: AMES SALMONELLA TYPHIMURIUM, Strain/Indicator: TA1535, Metabolic Activation: RAT LIVER S-9, PHENOBARBITAL AND BETA-NAPHTHOFLAVONE (40%), Method: GAS EXPOSURE inactive; negative | Test System: AMES SALMONELLA TYPHIMURIUM, Strain/Indicator: TA1537, Metabolic Activation: NONE, Method: GAS EXPOSURE inactive; negative | Test System: AMES SALMONELLA TYPHIMURIUM, Strain/Indicator: TA1537, Metabolic Activation: RAT LIVER S-9, PHENOBARBITAL AND BETA-NAPHTHOFLAVONE (40%), Method: GAS EXPOSURE inactive; negative | Test System: E.COLI, Strain/Indicator: WP2UVRA, Metabolic Activation: NONE, Method: GAS EXPOSURE inactive; negative | Test System: E.COLI, Strain/Indicator: WP2UVRA, Metabolic Activation: RAT LIVER S-9, PHENOBARBITAL AND BETA-NAPHTHOFLAVONE (40%), Method: GAS EXPOSURE inactive; negative

Cc1cc2c(cc1C)-c1ccccc1C2
inactive: [1] inactive; negative | [2] inactive; negative

CC(=O)c1c(O)cc(O)c2c1C(=O)c1cc(O)cc(O)c1C2=O
inactive: [3] inactive; negative | [1] inactive; negative | [4] inactive; negative | [2] inactive; negative | Test System: AMES SALMONELLA TYPHIMURIUM, Strain/Indicator: TA1537, Metabolic Activation: RAT, LIVER, S-9, AROCLOR 1254, Method: STANDARD PLATE inactive; negative

CC/C(=C(/c1ccc(OCCN(C)C)cc1)c1ccc(OP(=O)(O)O)cc1)c1ccc(C(C)C)cc1
inactive: [5] inactive; negative | Test System: AMES SALMONELLA TYPHIMURIUM, Strain/Indicator: TA98, Metabolic Activation: RAT, LIVER, S-9, Method: PREINCUBATION inactive; negative | [6] inactive; negative | Test System: AMES SALMONELLA TYPHIMURIUM, Strain/Indicator: TA100, Metabolic Activation: RAT, LIVER, S-9, Method: PREINCUBATION inactive; negative | Test System: AMES SALMONELLA TYPHIMURIUM, Strain/Indicator: TA1535, Metabolic Activation: NONE, Method: PREINCUBATION inactive; negative | Test System: AMES SALMONELLA TYPHIMURIUM, Strain/Indicator: TA1535, Metabolic Activation: RAT, LIVER, S-9, Method: PREINCUBATION inactive; negative | Test System: AMES SALMONELLA TYPHIMURIUM, Strain/Indicator: TA1537, Metabolic Activation: NONE, Method: PREINCUBATION inactive; negative | Test System: AMES SALMONELLA TYPHIMURIUM, Strain/Indicator: TA1537, Metabolic Activation: RAT, LIVER, S-9, Method: PREINCUBATION inactive; negative | Test System: E. COLI, Strain/Indicator: WP2 UVRA, Metabolic Activation: NONE, Method: PREINCUBATION inactive; negative | Test System: E. COLI, Strain/Indicator: WP2 UVRA, Metabolic Activation: RAT, LIVER, S-9, Method: PREINCUBATION inactive; negative

C=C(Cl)C#N
inactive: [6] inactive; negative | Test System: AMES SALMONELLA TYPHIMURIUM, Strain/Indicator: TA100, Metabolic Activation: RAT, LIVER, S-9, AROCLOR 1254, Method: PREINCUBATION inactive; negative

O=C([O-])c1ccc2ccccc2c1.O=C([O-])c1ccc2ccccc2c1.[Pb+2]
active: Test System: MOUSE LYMPHOMA, Strain/Indicator: L5178Y (TK+/TK-), Metabolic Activation: NONE, Method: SUSPENSION/PLATE active; positive. reevaluation of results: equivocal

OCc1ccc(F)cc1
inactive: [4] inactive; negative

CN1CCN(c2ccc3nc(-c4ccc5nc(-c6ccc(N(CCCl)CCCl)cc6)[nH]c5c4)[nH]c3c2)CC1
inactive: [3] inactive; negative | [4] inactive; negative | Test System: AMES SALMONELLA TYPHIMURIUM, Strain/Indicator: TA102, Metabolic Activation: NONE, Method: STANDARD PLATE inactive; negative

CCOP(=S)(OCC)SCSCC
inactive: Test System: AMES SALMONELLA TYPHIMURIUM, Strain/Indicator: TA97A, Metabolic Activation: NONE, Method: STANDARD PLATE inactive; negative | Test System: AMES SALMONELLA TYPHIMURIUM, Strain/Indicator: TA97A, Metabolic Activation: PLANT, HOMOGENATE, S-14, Method: STANDARD PLATE inactive; negative | Test System: AMES SALMONELLA TYPHIMURIUM, Strain/Indicator: TA97A, Metabolic Activation: S-9, Method: STANDARD PLATE inactive; negative | [5] inactive; negative | [3] inactive; negative | Test System: AMES SALMONELLA TYPHIMURIUM, Strain/Indicator: TA98, Metabolic Activation: PLANT, HOMOGENATE, S-14, Method: STANDARD PLATE inactive; negative | Test System: AMES SALMONELLA TYPHIMURIUM, Strain/Indicator: TA98, Metabolic Activation: S-9, Method: STANDARD PLATE inactive; negative | [6] inactive; negative | [4] inactive; negative | Test System: AMES SALMONELLA TYPHIMURIUM, Strain/Indicator: TA100, Metabolic Activation: PLANT, HOMOGENATE, S-14, Method: STANDARD PLATE inactive; negative | Test System: AMES SALMONELLA TYPHIMURIUM, Strain/Indicator: TA100, Metabolic Activation: S-9, Method: STANDARD PLATE inactive; negative | Test System: AMES SALMONELLA TYPHIMURIUM, Strain/Indicator: TA1535, Metabolic Activation: NONE, Method: STANDARD PLATE inactive; negative | Test System: AMES SALMONELLA TYPHIMURIUM, Strain/Indicator: TA1535, Metabolic Activation: PLANT, HOMOGENATE, S-14, Method: STANDARD PLATE inactive; negative | Test System: AMES SALMONELLA TYPHIMURIUM, Strain/Indicator: TA1535, Metabolic Activation: S-9, Method: STANDARD PLATE inactive; negative

CCOC1=CC(=O)C(NC(C)=O)=CC1=O
active: [3] active; positive | [4] active; positive

OCc1cc2cccc3ccc4cc5ccccc5c1c4c32
inactive: [3] inactive; negative | [4] inactive; negative
